From patent US20120142015A1, “GFP FUSION PROTEINS AND THEIR USE” (The Board of Trustees of The University of Illinois, priority 2001, published 2012)

Experiments:
[1] = tested on: Gαs-GFP; type: cell-based
[2] = tested on: Gαs-GFP; type: cell-based; remark: listed apart in the source
[3] = target: β-adrenergic receptor; test: cell-based or functional assay
[4] = living cells transfected with Gαs-GFP

CC(C)NCC(O)c1ccc(O)c(O)c1 (centres unmarked) [isoproterenol]
cells showing internalized Gαs-GFP in response to isoproterenol ([1]; isoproterenol 20 μM, COS cells, 37° C., 58 cells in 15 experiments): Approximately 70% | release of Gαs-GFP from plasma membrane into the cytoplasm [1, 4]: rapid partial release of Gαs-GFP into the cytoplasm | time after treatment at which extent of Gαs-GFP release from plasma membrane was maximal [1, 4]: 1 min

cholera toxin
displacement of Gαs-GFP from the plasma membrane [2]: gradual displacement of Gαs-GFP from the plasma membrane throughout the cytoplasm

Gαs-GFP fusion protein (GFP inserted within the internal amino acid sequence of long Gαs)
percent of cells with internalized Gαs-GFP in response to isoproterenol (20 µM) [3]: 70%
